Paper PMC6264278, “Corydaline Inhibits Multiple Cytochrome P450 and UDP-Glucuronosyltransferase Enzyme Activities in Human Liver Microsomes” (Molecules, 2011)

Target: T1, UGT1A1 (Homo sapiens, UniProt P22309)
T1 construct: using pooled human liver microsomes; tissue BD Gentest Co. H161; host or cells: pooled human liver microsomes
T1 sequence (P22309 26-533): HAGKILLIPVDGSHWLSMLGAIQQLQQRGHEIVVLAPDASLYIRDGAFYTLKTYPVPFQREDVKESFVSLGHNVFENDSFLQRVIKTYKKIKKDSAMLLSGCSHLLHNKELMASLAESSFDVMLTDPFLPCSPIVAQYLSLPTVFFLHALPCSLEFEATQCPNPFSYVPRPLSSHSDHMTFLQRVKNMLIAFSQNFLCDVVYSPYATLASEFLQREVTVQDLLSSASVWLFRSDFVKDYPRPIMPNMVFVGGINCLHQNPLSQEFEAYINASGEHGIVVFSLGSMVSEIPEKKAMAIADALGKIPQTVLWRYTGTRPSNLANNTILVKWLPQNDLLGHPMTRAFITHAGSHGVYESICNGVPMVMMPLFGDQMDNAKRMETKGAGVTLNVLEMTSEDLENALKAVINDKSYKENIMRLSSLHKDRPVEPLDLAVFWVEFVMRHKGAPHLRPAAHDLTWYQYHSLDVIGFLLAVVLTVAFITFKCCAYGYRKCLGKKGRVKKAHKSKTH
Experiment: UGT1A1 17β-estradiol 3-glucuronidation inhibition in pooled human liver microsomes
Assay type: in vitro ADME
Procedure: The inhibitory potencies (IC50 values) of corydaline were also determined with UGT assays in the presence and absence of corydaline (final concentrations of 1–1,000 μM with acetonitrile concentration less than 0.5% v/v) using pooled human liver microsomes. 17β-Estradiol 3-glucuronidation, trifluoperazine glucuronidation, propofol glucuronidation, and azidothymidine glucuronidation activities were determined as probe activities for UGT1A1, UGT1A4, UGT1A9, and UGT2B7, respectively, using LC/MS/MS. Incubation mixtures were prepared in a total volume of 100 μL, as follows: Pooled human liver microsomes (0.2 mg/mL for 17β-estradiol, trifluoperazine and azidothymidine; 0.1 mg/mL for propofol), 2 mM UDPGA, 25 μg/mL alamethicin, 10 mM MgCl2, 50 mM tris buffer (pH 7.4), UGT-isoform specific probe substrate (20 μM 17β-estradiol for UGT1A1, 5 μM trifluoperazine for UGT1A4, 10 μM propofol for UGT1A9, or 100 μM azidothymidine for UGT2B7), and various concentrations of corydaline (1−1000 μM). Reactions were initiated by addition of UDPGA, and incubations were carried out at 37 °C in a shaking water bath for 30 min. […]
Glucuronides produced from UGT isoform-specific substrates were respectively determined by LC/MS/MS. […] Quantification was performed by SRM of the [M+H]^+ ion for trifluoperazine glucuronide and azidothymidine glucuronide or [M−H]^− for 17β-estradiol 3-glucuronide and propofol glucuronide and the related product ion for each metabolite.
Reactions were initiated by addition of NADPH at 37 °C and stopped after 15 min by placement of the incubation tubes on ice and addition of ice-cold methanol (100 μL) containing an internal standard (2.0 μg/mL ^13C6-4-hydroxydiclofenac for diclofenac, 0.5 μg/mL d3-4-hydroxymephenytoin for mephenytoin, or 0.5 μg/mL d9-1-hydroxy-bufuralol for bufuralol). The incubation mixtures were centrifuged at 13,000 × g for 5 min, and aliquots (5 μL) of the supernatants were analyzed by LC/MS/MS. […] Aliquots (5 μL) were analyzed by LC/MS/MS. […]

Ki (human liver microsomes, 10-80 μM 17β-estradiol, mixed competitive-noncompetitive equation): 57.6 ± 13 µM
α (mix of competitive and noncompetitive mechanisms), UGT1A1 17β-estradiol 3-glucuronidation (mixed competitive-noncompetitive equation, nonlinear regression): 0.555
IC50 (pooled human liver microsomes (H161), 20 μM 17β-estradiol, mean ± SD, n = 3): 137 ± 16.2 µM
SMILES: COc1cc2c(cc1OC)C1C(C)c3ccc(OC)c(OC)c3CN1CC2 (stereo not drawn) [Corydaline, 2,3,9,10-tetramethoxy-13-methyl-5,8,13,13a-tetrahydro-6H-isoquino[3,2-a]isoquinoline]
